In patent publication US8003666B2, “Hydrate for medical purposes” (priority 2006, dated 2011):
Values after ≈ are worked out from the molar mass of the structure shown.

Tests used:
[1] = system: P. aeruginosa, 32104; assay: Antibacterial activity MIC, Japanese Society of Chemotherapy standard procedure; conditions: Pseudomonas aeruginosa
[2] = Change in crystalline form after thermal dehydration; format: physicochemical; conditions: X-ray diffraction on thermal treatments; FIG. 7
Source text: Change in crystalline form by thermal treatment was examined for 7-[(7S)-7-amino-7-methyl-5-azaspiro[2.4]heptan-5-yl]-6-fluoro-1-[(1R,2S)-2-fluorocyclopropyl]-8-methoxy-1,4-dihydro-4-oxoquinoline-3-carboxylic acid hemihydrate obtained in Example 1.

[3] = system: E. coli NIHJ; assay: Antibacterial activity MIC, Japanese Society of Chemotherapy standard procedure; conditions: Escherichia coli
[4] = system: S. epidermidis, 56500; assay: as above; conditions: Staphylococcus epidermidis
[5] = format: physicochemical
Description: 7-[(7S)-7-amino-7-methyl-5-azaspiro[2.4]heptan-5-yl]-6-fluoro-1-[(1R,2S)-2-fluorocyclopropyl]-8-methoxy-1,4-dihydro-4-oxoquinoline-3-carboxylic acid hemihydrate obtained in Example 1 was each stored for 2 weeks under wet heat condition (40° C., 75% RH), dry heat condition (50° C., of 0% RH) and photo irradiation condition.

[6] = system: S. aureus, 209P; assay: Antibacterial activity MIC, Japanese Society of Chemotherapy standard procedure; conditions: Staphylococcus aureus
[7] = system: P. aeruginosa, 32121; assay: as above; conditions: Pseudomonas aeruginosa
[8] = Change in moisture sorption and desorption after thermal dehydration; format: physicochemical; conditions: thermal dehydration (60° C.); FIG. 6
Description: Change in moisture sorption and desorption after thermal dehydration (60° C.) was examined for 7-[(7S)-7-amino-7-methyl-5-azaspiro[2.4]heptan-5-yl]-6-fluoro-1-[(1R,2S)-2-fluorocyclopropyl]-8-methoxy-1,4-dihydro-4-oxoquinoline-3-carboxylic acid hemihydrate obtained in Example 1.

[9] = system: S. marscecens, 10100; assay: Antibacterial activity MIC, Japanese Society of Chemotherapy standard procedure
[10] = Crystal stability on storage at controlled relative humidity; format: physicochemical; conditions: 25° C., 3 days
Description: Weight change and crystalline form were examined as to 7-[(7S)-7-amino-7-methyl-5-azaspiro[2.4]heptan-5-yl-6-fluoro-1-[(1R,2S)-2-fluorocyclopropyl]-8-methoxy-1,4-dihydro-4-oxoquinoline-3-carboxylic acid hemihydrate obtained in Example 1 by being stored under the condition of 0, 52 or 93% of relative humidity, at 25° C. for 3 days. The crystalline form was evaluated by measuring with powder X-ray diffraction and thermal analysis.

[11] = system: S. pneumoniae, J24; assay: Antibacterial activity MIC, Japanese Society of Chemotherapy standard procedure; conditions: Streptococcus pneumoniae
[12] = Moisture sorption and desorption behavior; format: physicochemical; conditions: atmospheric pressure type automatic water vapor adsorption device; FIG. 5
Source text: Moisture sorption and desorption behavior was examined with an atmospheric pressure type automatic water vapor adsorption device for 7-[(7S)-7-amino-7-methyl-5-azaspiro[2.4]heptan-5-yl]-6-fluoro-1-[(1R,2S)-2-fluorocyclopropyl]-8-methoxy-1,4-dihydro-4-oxoquinoline-3-carboxylic acid hemihydrate obtained in Example 1.

[13] = system: E. coli E77156 strain; assay: Therapeutic efficacy in rat simple cystitis model (E. coli); format: in vivo; conditions: orally once at 5, 20 and 80 mg/kg on the next day of infection, in comparison with the count at beginning of the treatment, FIG. 2
[14] = system: Mycobacterium tuberculosis (sensitive bacteria); assay: Anti-mycobacterium tuberculosis activity MIC, sensitive bacteria; format: cell-based
[15] = system: P. vulgaris, 08601; assay: Antibacterial activity MIC, Japanese Society of Chemotherapy standard procedure; format: cell-based; conditions: Proteus vulgaris
[16] = system: S. aureus, 87037; assay: as above; conditions: Staphylococcus aureus
[17] = system: E. faecalis, ATCC 19433; assay: as above; conditions: Enterococcus faecalis, ATCC19433

In the case of `COc1c(N2CC3(CC3)[C@](C)(N)C2)c(F)cc2c(=O)c(C(=O)O)cn([C@@H]3C[C@@H]3F)c12` [Hemihydrate, 7-[(7S)-7-Amino-7-methyl-5-azaspiro[2.4]heptan-5-yl]-6-fluoro-1-[(1R,2S)-2-fluorocyclopropyl]-8-methoxy-1,4-dihydro-4-oxoquinoline-3-carboxylic acid hemihydrate], the MIC [1] is reported as 0.39 µg/mL, the “Crystalline form after thermal dehydration” value [2] is reported as “had its crystalline state even after being dehydrated” and the MIC [3] is reported as 0.025 µg/mL. The MIC [4] was 0.1 µg/mL, the “Observation under photo irradiation condition” value ([5]; photo irradiation condition) was “color change and some decrease in remaining ratio” and the “Content under wet heat and dry heat condition” value ([5]; wet heat (40° C., 75% RH) and dry heat (50° C., 0% RH), 2 weeks) was “stable and its content was not decreased”. For the same compound, the MIC [6] was 0.025 µg/mL, the MIC [7] was 0.2 µg/mL and the “Moisture sorption and desorption after thermal dehydration” value [8] was “rehydrated rapidly after being dehydrated”. The MIC [9] was 0.1 µg/mL, the “Weight Change (%)” value ([10]; 0% RH) was 0.00% and the “Crystalline form after storage” value ([10]; 0, 52 or 93% relative humidity, powder X-ray diffraction and thermal analysis) was “the crystalline form did not change”. For the same compound, the “Weight Change (%)” value ([10]; 52% RH) was 0.43%, the “Weight Change (%)” value ([10]; 93% RH) was 0.61% and the MIC [11] was 0.1 µg/mL. For the same compound, the “Weight change as humidity changes” value [12] was at most 1%, the “Bacterial count in the bladder” value [13] was “statistically significant decrease in bacterial count” and the MIC ([14]; H37RV, strain H37Rv) was 0.03 µg/mL. The MIC ([14]; strain Kurono) was 0.03 µg/mL, the MIC ([14]; strain Ravenel) was 0.03 µg/mL and the MIC ([14]; strain TB-s 2) was 0.06 µg/mL. It also gave an MIC ([14]; strain TB-s 3) of 0.06 µg/mL, an MIC ([14]; strain TB-s 4) of 0.06 µg/mL and an MIC ([14]; strain TB-s 5) of 0.06 µg/mL. For the same compound, the MIC ([14]; strain TB-s 6) was 0.06 µg/mL, the MIC ([14]; strain TB-s 7) was 0.06 µg/mL and the MIC ([14]; strain TB-s 8) was 0.03 µg/mL. The MIC ([14]; strain TB-s 9) was 0.06 µg/mL, the MIC ([14]; strain TB-s 10) was 0.03 µg/mL and the MIC ([14]; strain TB-s 11) was 0.06 µg/mL. It also gave an MIC ([14]; strain TB-s 12) of 0.125 µg/mL, an MIC ([14]; strain TB-s 13) of 0.06 µg/mL and an MIC ([14]; strain TB-s 14) of 0.06 µg/mL. For the same compound, the MIC ([14]; strain TB-s 15) was 0.06 µg/mL, the MIC ([14]; strain TB-s 16) was 0.06 µg/mL and the MIC ([14]; strain TB-s 17) was 0.06 µg/mL. It also gave an MIC ([14]; strain TB-s 18) of 0.06 µg/mL, an MIC ([14]; strain TB-s 19) of 0.06 µg/mL and an MIC ([14]; strain TB-s 20) of 0.06 µg/mL. It also gave an MIC ([14]; strain TB-s 21) of 0.06 µg/mL, an MIC ([14]; strain TB-s 22) of 0.03 µg/mL and an MIC [15] of 0.025 µg/mL. For the same compound, the MIC [16] was 0.78 µg/mL and the MIC [17] was 0.2 µg/mL.
In the case of `COc1c(N2CCNC(C)C2)c(F)cc2c(=O)c(C(=O)O)cn(C3CC3)c12` (centres unmarked) [GTFX, gatifloxacin], the MIC [1] is reported as 0.2 µg/mL (≈ 0.533 µM), the MIC [3] is reported as 0.006 µg/mL (≈ 0.016 µM) and the MIC [4] is reported as 0.2 µg/mL (≈ 0.533 µM). For the same compound, the MIC [6] was 0.05 µg/mL (≈ 0.133 µM), the MIC [7] was 0.1 µg/mL (≈ 0.266 µM) and the MIC [9] was 0.1 µg/mL (≈ 0.266 µM). For the same compound, the MIC [11] was 0.2 µg/mL (≈ 0.533 µM), the MIC [15] was 0.006 µg/mL (≈ 0.016 µM) and the MIC [16] was 1.56 µg/mL (≈ 4.16 µM). It also gave an MIC [17] of 0.39 µg/mL (≈ 1.04 µM).
Compound `O=C(O)c1cn(C2CC2)c2cc(N3CCNCC3)c(F)cc2c1=O` [CPFX, ciprofloxacin] has an MIC [1] of 0.05 µg/mL (≈ 0.151 µM), an MIC [3] of at most 0.003 µg/mL and an MIC [4] of 0.2 µg/mL (≈ 0.604 µM). It also gave an MIC [6] of 0.1 µg/mL (≈ 0.302 µM), an MIC [7] of 0.025 µg/mL (≈ 0.0754 µM) and an MIC [9] of 0.025 µg/mL (≈ 0.0754 µM). For the same compound, the MIC [11] was 0.39 µg/mL (≈ 1.18 µM), the MIC [15] was at most 0.003 µg/mL and the MIC [16] was over 6.25 µg/mL. The MIC [17] was 0.78 µg/mL (≈ 2.35 µM).
Work on `CO[C@H]1/C=C/O[C@@]2(C)Oc3c(C)c(O)c4c(O)c(c(/C=N/N5CCN(C)CC5)c(O)c4c3C2=O)NC(=O)/C(C)=C\C=C\[C@H](C)[C@H](O)[C@@H](C)[C@@H](O)[C@@H](C)[C@H](OC(C)=O)[C@@H]1C` [RFP, rifampicin] yielded an MIC ([14]; H37RV, strain H37Rv) of 0.125 µg/mL (≈ 0.152 µM), an MIC ([14]; strain Kurono) of 0.06 µg/mL (≈ 0.0729 µM) and an MIC ([14]; strain Ravenel) of 0.125 µg/mL (≈ 0.152 µM). For the same compound, the MIC ([14]; strain TB-s 2) was 0.03 µg/mL (≈ 0.0365 µM), the MIC ([14]; strain TB-s 3) was 0.125 µg/mL (≈ 0.152 µM) and the MIC ([14]; strain TB-s 4) was 0.06 µg/mL (≈ 0.0729 µM). For the same compound, the MIC ([14]; strain TB-s 5) was 0.06 µg/mL (≈ 0.0729 µM), the MIC ([14]; strain TB-s 6) was 0.125 µg/mL (≈ 0.152 µM) and the MIC ([14]; strain TB-s 7) was 0.06 µg/mL (≈ 0.0729 µM). The MIC ([14]; strain TB-s 8) was 0.015 µg/mL (≈ 0.0182 µM), the MIC ([14]; strain TB-s 9) was 0.06 µg/mL (≈ 0.0729 µM) and the MIC ([14]; strain TB-s 10) was 0.06 µg/mL (≈ 0.0729 µM). It also gave an MIC ([14]; strain TB-s 11) of 0.06 µg/mL (≈ 0.0729 µM), an MIC ([14]; strain TB-s 12) of 0.125 µg/mL (≈ 0.152 µM) and an MIC ([14]; strain TB-s 13) of 0.06 µg/mL (≈ 0.0729 µM). The MIC ([14]; strain TB-s 14) was 0.03 µg/mL (≈ 0.0365 µM), the MIC ([14]; strain TB-s 15) was 0.06 µg/mL (≈ 0.0729 µM) and the MIC ([14]; strain TB-s 16) was 0.06 µg/mL (≈ 0.0729 µM). It also gave an MIC ([14]; strain TB-s 17) of 0.06 µg/mL (≈ 0.0729 µM), an MIC ([14]; strain TB-s 18) of 0.03 µg/mL (≈ 0.0365 µM) and an MIC ([14]; strain TB-s 19) of 0.125 µg/mL (≈ 0.152 µM). For the same compound, the MIC ([14]; strain TB-s 20) was 0.25 µg/mL (≈ 0.304 µM), the MIC ([14]; strain TB-s 21) was 0.03 µg/mL (≈ 0.0365 µM) and the MIC ([14]; strain TB-s 22) was 0.015 µg/mL (≈ 0.0182 µM).
For `C[C@H]1COc2c(N3CCN(C)CC3)c(F)cc3c(=O)c(C(=O)O)cn1c23` [LVFX, levofloxacin], the MIC [1] was 0.2 µg/mL (≈ 0.553 µM), the MIC [3] was 0.012 µg/mL (≈ 0.0332 µM) and the MIC [4] was 0.39 µg/mL (≈ 1.08 µM). For the same compound, the MIC [6] was 0.2 µg/mL (≈ 0.553 µM), the MIC [7] was 0.1 µg/mL (≈ 0.277 µM) and the MIC [9] was 0.1 µg/mL (≈ 0.277 µM). The MIC [11] was 0.78 µg/mL (≈ 2.16 µM), the MIC [15] was 0.012 µg/mL (≈ 0.0332 µM) and the MIC [16] was over 6.25 µg/mL. For the same compound, the MIC [17] was 0.78 µg/mL (≈ 2.16 µM).
